Test results: ChEMBL document CHEMBL1201862, “PubChem BioAssay data set” (2004)
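Values below derive from 48-hour exposures of cells grown in 96-well plates, with endpoints linearly interpolated between the two concentrations bracketing the appropriate inhibition level. Here, GI50 denotes the concentration required for 50% inhibition of growth.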 Calls of active or inactive are those of the source. Cut-off read from the data, not from the text of the source: active = GI50 up to about 1.1 µM and inactive = higher.

How the values were obtained:
Experiment in all cases: inhibition of tumour cell growth, NCI panel, 48 h
HCC 2998 = test system: HCC 2998
SF-295 = test system: SF-295
Malme-3M = test system: Malme-3M
UACC-257 = test system: UACC-257
HCT-15 = test system: HCT-15
Hs-578T = test system: Hs-578T
SN12C = test system: SN12C
EKVX = test system: EKVX
NCI-H522 = test system: NCI-H522
OVCAR-3 = test system: OVCAR-3
MOLT-4 = test system: MOLT-4
MDA-N = test system: MDA-N
HCT-116 = test system: HCT-116
MCF7 = test system: MCF7
NCI-H460 = test system: NCI-H460
NCI-H23 = test system: NCI-H23
OVCAR-8 = test system: OVCAR-8
NCI-H226 = test system: NCI-H226
HL-60 = test system: HL-60
SF-539 = test system: SF-539

Compound	GI50 (HCC 2998)	GI50 (SF-295)	GI50 (Malme-3M)	GI50 (UACC-257)	GI50 (HCT-15)	GI50 (Hs-578T)	GI50 (SN12C)	GI50 (EKVX)	GI50 (NCI-H522)	GI50 (OVCAR-3)	GI50 (MOLT-4)	GI50 (MDA-N)	GI50 (HCT-116)	GI50 (MCF7)	GI50 (NCI-H460)	GI50 (NCI-H23)	GI50 (OVCAR-8)	GI50 (NCI-H226)	GI50 (HL-60)	GI50 (SF-539)
CC(=O)Oc1ccc(/C=C/C(=O)OCCOC(=O)/C=C/c2ccc(OC(C)=O)c(OC(C)=O)c2)cc1OC(C)=O	14.5 µM (inactive)	8.97 µM (inactive)	12.4 µM (inactive)	10.5 µM (inactive)	4.75 µM	16.8 µM (inactive)	11.7 µM (inactive)	14.8 µM (inactive)	2.93 µM (inactive)	5.36 µM (inactive)	5.61 µM (inactive)	7.14 µM (inactive)	4.66 µM (inactive)	9.64 µM (inactive)	11.9 µM (inactive)	4.26 µM (inactive)	4.8 µM (inactive)	14.9 µM (inactive)	3.95 µM (inactive)	2.72 µM (inactive)
CCCCC1Cc2ccccc2-c2nc3ccccc3n21 (stereo unspecified)	14.2 µM (inactive)	15 µM (inactive)		17.5 µM (inactive)	12.6 µM	17.1 µM (inactive)		21 µM (inactive)	13 µM (inactive)	15.2 µM (inactive)	13.6 µM (inactive)	15.1 µM (inactive)	12.6 µM (inactive)	17.3 µM (inactive)	14.3 µM (inactive)	14.9 µM (inactive)	18 µM (inactive)	19.4 µM (inactive)	< 0.01 µM (active)	19.6 µM (inactive)
CCOC(=O)c1cc(-c2ccn(C(C)=O)c2)c(-c2cc(C)co2)[nH]1	> 100 µM (inactive)	> 100 µM (inactive)	> 100 µM (inactive)	> 100 µM (inactive)	> 100 µM	> 100 µM (inactive)	> 100 µM (inactive)	> 100 µM (inactive)	> 100 µM (inactive)	> 100 µM (inactive)	> 100 µM (inactive)	> 100 µM (inactive)	> 100 µM (inactive)	> 100 µM (inactive)	> 100 µM (inactive)	> 100 µM (inactive)	> 100 µM (inactive)	> 100 µM (inactive)	> 100 µM (inactive)	
Cc1c(CN2CCN(C)CC2)c(CN2CCN(C)CC2)c(C)n1-c1ccc(Cl)cc1	39.7 µM (inactive)	21.2 µM (inactive)	20.9 µM (inactive)	14.2 µM (inactive)	47 µM	24 µM (inactive)	> 100 µM (inactive)	72.4 µM (inactive)	20.5 µM (inactive)	94.8 µM (inactive)	30.3 µM (inactive)	21 µM (inactive)	27.7 µM (inactive)	39.5 µM (inactive)	50.7 µM (inactive)	54.2 µM (inactive)	19.9 µM (inactive)	33.6 µM (inactive)		
CCCC(CC)c1c(O)c(O)c(C(CC)CCC)c(C(CC)CCC)c1C(CC)CCC (stereo unspecified)	> 10 µM (inactive)	> 10 µM (inactive)	> 10 µM (inactive)	> 10 µM (inactive)	> 10 µM	> 10 µM (inactive)	> 10 µM (inactive)	> 10 µM (inactive)	> 10 µM (inactive)	> 10 µM (inactive)		> 10 µM (inactive)	> 10 µM (inactive)	> 10 µM (inactive)	> 10 µM (inactive)	> 10 µM (inactive)	> 10 µM (inactive)	> 10 µM (inactive)	> 10 µM (inactive)	> 10 µM (inactive)
Cc1cc(S(=O)(=O)Nc2n[nH]c(-c3ccc(Cl)cn3)n2)c(S)cc1Cl	57.5 µM (inactive)		> 100 µM (inactive)	> 100 µM (inactive)	70.1 µM	27.9 µM (inactive)	> 100 µM (inactive)	> 100 µM (inactive)	46.1 µM (inactive)	45.6 µM (inactive)	40.6 µM (inactive)	63.4 µM (inactive)	38.6 µM (inactive)	74.1 µM (inactive)	36.9 µM (inactive)		48.8 µM (inactive)	33.4 µM (inactive)	42 µM (inactive)	44.1 µM (inactive)
CCOC(=O)CNc1c(OCc2ccccc2)c(=O)c1=O	> 100 µM (inactive)	> 100 µM (inactive)	> 100 µM (inactive)	> 100 µM (inactive)	> 100 µM	> 100 µM (inactive)	> 100 µM (inactive)	> 100 µM (inactive)	> 100 µM (inactive)	> 100 µM (inactive)	> 100 µM (inactive)	> 100 µM (inactive)	> 100 µM (inactive)	> 100 µM (inactive)		> 100 µM (inactive)	> 100 µM (inactive)	> 100 µM (inactive)		
CC1(C)CCCCC1/C=C/C(CC(O)(C(F)(F)F)C(F)(F)F)=N\Nc1ccc([N+](=O)[O-])cc1[N+](=O)[O-] (stereo unspecified)	4.55 µM (inactive)	2.42 µM (inactive)	4.51 µM (inactive)	0.962 µM (active)	1.32 µM	0.575 µM (active)	2.13 µM (inactive)		0.49 µM (active)	0.409 µM (active)	0.807 µM (active)	2.84 µM (inactive)	0.587 µM (active)	0.573 µM (active)	0.604 µM (active)	0.29 µM (active)	2.13 µM (inactive)	0.498 µM (active)	1.38 µM (inactive)	0.292 µM (active)
C/C(=N\Nc1nc2ccccc2n1C)c1ccc2ccccc2n1	0.256 µM (active)	2.21 µM (inactive)	1.59 µM (inactive)	4.36 µM (inactive)		15.4 µM (inactive)	1.82 µM (inactive)	0.144 µM (active)	0.416 µM (active)	0.0489 µM (active)	0.414 µM (active)	5.04 µM (inactive)	0.791 µM (active)	0.406 µM (active)	2.56 µM (inactive)	4.41 µM (inactive)		1.87 µM (inactive)	0.774 µM (active)	4.53 µM (inactive)
O=C(/C=C/c1c[nH]c2ccccc12)c1ccccc1O	11 µM (inactive)	10.4 µM (inactive)	11.7 µM (inactive)	15.5 µM (inactive)	9.89 µM	22.6 µM (inactive)	13.8 µM (inactive)	5.97 µM (inactive)	7.64 µM (inactive)	5.05 µM (inactive)	7.41 µM (inactive)	5.5 µM (inactive)	12.9 µM (inactive)	3.1 µM (inactive)	13.2 µM (inactive)		12.9 µM (inactive)	16.7 µM (inactive)	13.6 µM (inactive)	12.6 µM (inactive)
N#Cc1c(N)oc(-c2ccc([N+](=O)[O-])cc2)c1C#N	32.7 µM (inactive)	19.2 µM (inactive)	26.7 µM (inactive)	25.2 µM (inactive)	23.4 µM	25.6 µM (inactive)	24.2 µM (inactive)	8.67 µM (inactive)	21.4 µM (inactive)			30.3 µM (inactive)	29.2 µM (inactive)	35 µM (inactive)		23.8 µM (inactive)	20.5 µM (inactive)	17.9 µM (inactive)	> 100 µM (inactive)	19.8 µM (inactive)
CCOP(=O)(C=C=C1CCC2[C@@H]3CCc4cc(OC)ccc4C3CC[C@]12C)OCC (stereo partly specified)	12.1 µM (inactive)	5.6 µM (inactive)	15.6 µM (inactive)	6.21 µM (inactive)	10.9 µM	20.5 µM (inactive)	10.4 µM (inactive)	10 µM (inactive)	4.16 µM (inactive)	10.2 µM (inactive)		12.3 µM (inactive)	5.22 µM (inactive)	6.14 µM (inactive)	7.82 µM (inactive)	5.73 µM (inactive)	11 µM (inactive)	5.43 µM (inactive)	0.0222 µM (active)	14.9 µM (inactive)
CC12ON=C(c3ccccc3)N1C=CN1C(c3ccccc3)=NOC12 (stereo unspecified)	> 100 µM (inactive)	> 100 µM (inactive)	> 100 µM (inactive)	> 100 µM (inactive)	> 100 µM	> 100 µM (inactive)		> 100 µM (inactive)	> 100 µM (inactive)	> 100 µM (inactive)		> 100 µM (inactive)	98.6 µM (inactive)	> 100 µM (inactive)	> 100 µM (inactive)	> 100 µM (inactive)	> 100 µM (inactive)	> 100 µM (inactive)		> 100 µM (inactive)
CCc1c2c(cc3c1CC1(C3)Cc3cc4c(c(C(=O)OC)c3C1)CCCC4)CCCC2 (stereo unspecified)	> 100 µM (inactive)	> 100 µM (inactive)	> 100 µM (inactive)	> 100 µM (inactive)	> 100 µM	19.2 µM (inactive)	> 100 µM (inactive)	28.4 µM (inactive)	> 100 µM (inactive)	> 100 µM (inactive)	34.5 µM (inactive)	> 100 µM (inactive)	20 µM (inactive)	> 100 µM (inactive)		> 100 µM (inactive)	> 100 µM (inactive)	> 100 µM (inactive)	80.9 µM (inactive)	> 100 µM (inactive)
O=c1oc2ccccc2cc1-c1csc(Nc2ccc(F)cc2)n1	5.48 µM (inactive)	3.62 µM (inactive)		14.8 µM (inactive)	2.86 µM	2.36 µM (inactive)	3.01 µM (inactive)	1.97 µM (inactive)	1.91 µM (inactive)	6.55 µM (inactive)	5.18 µM (inactive)	4.66 µM (inactive)	2.33 µM (inactive)	2.77 µM (inactive)	5.05 µM (inactive)	2.9 µM (inactive)	2.77 µM (inactive)	3.1 µM (inactive)	4.59 µM (inactive)	1.91 µM (inactive)
